Source: patent publication EP0839146B1, “PIPERAZINE DERIVATIVES AND THEIR USE AS 5-HT1A ANTAGONISTS” (AMERICAN HOME PRODUCTS CORPORATION, priority 1995, dated 1997)

Legend:
α1 receptors = experiment: α1 binding affinity (procedure of Marrow et al)
Description: The compounds were tested for α1 binding affinity (column 3) by the procedure of A.L. Marrow et al, Mol. Pharmacol., 1986, 29, 321.

5-HT1A receptor [1] = biological target: T1, 5-HT1A receptor (Rattus norvegicus, UniProt P19327); experiment: 5-HT1A receptor antagonist activity: antagonism of the 8-OH-DPAT syndrome in rats after oral pretreatment; assay type: in vivo; parameters: from tissue; host or cells: whole animal (rat), in vivo
T1 sequence (P19327 1-422): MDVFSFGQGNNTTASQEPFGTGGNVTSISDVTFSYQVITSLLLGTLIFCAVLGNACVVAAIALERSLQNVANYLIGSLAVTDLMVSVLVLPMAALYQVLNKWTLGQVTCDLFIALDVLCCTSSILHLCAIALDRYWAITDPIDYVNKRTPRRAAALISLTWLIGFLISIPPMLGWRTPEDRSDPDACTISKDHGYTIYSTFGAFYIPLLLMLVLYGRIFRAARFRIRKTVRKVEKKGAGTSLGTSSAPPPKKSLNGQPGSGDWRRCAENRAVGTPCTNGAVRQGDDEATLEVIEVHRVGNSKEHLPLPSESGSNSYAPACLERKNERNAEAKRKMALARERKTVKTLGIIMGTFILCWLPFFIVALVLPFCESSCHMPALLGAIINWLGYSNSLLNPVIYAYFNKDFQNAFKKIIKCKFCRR
Description: 5-HT1A receptor antagonist activity (columns 5 and 6) is assessed by the ability of the selective 5-HT1A receptor agonist, 8-OH-DPAT, to induce 'the 8-OH-DPAT syndrome' in rats characterised by extended flat body posture, forepaw treading and hyperlocomotion. The 8-OH-DPAT syndrome is scored as present (definite syndrome response) or absent (equivocal or no syndrome response) during the period 0-5 min following intravenous (i.v.) administration of the test agonist via a lateral tail vein.
A range of doses, on a logarithmic scale and encompassing the expected ED50, were chosen for the test agonist following preliminary evaluation. […]
Test antagonists were administered orally (p.o.) 60 min, before i.v. administration of 8-OH-DPAT. ED50 values for 8-OH-DPAT were determined for the different pretreatment groups using the sequential up/down procedure as described above.
The response to the selective 5-HT1A receptor agonist, 8-OH-DPAT, is represented as an ED50 value for induction of the 8-OH-DPAT syndrome, which is determined using the sequential up/down analysis following intravenous administration. 5-HT1A antagonist activity is determined by the ability of the test compound to antagonise the response to 8-OH-DPAT, i.e. to increase the ED50 for induction of the 8-OH-DPAT syndrome compared with vehicle pretreatment. […]

5-HT1A receptor [2] = biological target: T1, 5-HT1A receptor; experiment: 5-HT1A binding affinity in rat hippocampal membrane homogenate (method of Alexander and Wood); parameters: in rat hippocampal membrane homogenate; from tissue; host or cells: rat hippocampus (membrane homogenate)
Description: The compounds were tested for 5-HT1A binding affinity (column 2) in rat hippocampal membrane homogenate by the method of B.S. Alexander and M.D. Wood, J. Pharm. Pharmacol., 1988, 40, 888-891.

C[C@H](CN(C(=O)C1CCCCC1)c1ccccn1)N1CCN(c2cccc3c2OCCO3)CC1 [Example A1]
IC50 (α1 receptors): 0.625 µM | 5-HT1A-antagonist Ratio (ED50 antagonist @ 3mg/kg po)/ED50 vehicle (5-HT1A receptor [1]; ED50 of i.v. 8-OH-DPAT after test compound 3 mg/kg p.o. divided by ED50 after vehicle): 20 | 5-HT1A-antagonist activity MED (5-HT1A receptor [1]; antagonist p.o. 60 min before i.v. 8-OH-DPAT, lowest dose at which ED50 confidence limits of antagonist and vehicle groups do not overlap): 1 mg/kg po | Ratio 5HT1A/α1 (5-HT1A receptor [2]; binding selectivity, ratio of 5-HT1A binding to α1-binding): 145 | IC50 (5-HT1A receptor [2]; rat hippocampal membrane homogenate): 0.0043 µM
